The values that follow come from ChEMBL document CHEMBL1144809, “Synthesis and biological evaluation of histone deacetylase inhibitors that are based on FR235222: a cyclic tetrapeptide scaffold” (Bioorg Med Chem Lett, 2008).

The subject of assay [1] is BXPC-3. Briefly: Cytotoxicity against human BxPC3 cells at 5 uM. The assay is classed as functional. To be noted: read-out: GI.
For assay [2], the system named is Histone deacetylase (Homo sapiens). Briefly: Inhibition of HDAC at 200 uM relative to control.

The structures appear in SMILES notation.

For the compound `CCC(=O)CCCCC[C@@H]1NC(=O)[C@H]2CCCCN2C(=O)[C@H]([C@@H](C)CC)NC(=O)[C@H](Cc2cn(OC)c3ccccc23)NC1=O` [APICIDIN], the inhibition of growth at 5 µM in assay [1] was 98%.

On to `CC[C@@H]1NC(=O)[C@H](CCCNC(=N)N)NC(=O)[C@H]2CCCCN2C(=O)[C@@H](Cc2ccccc2)NC1=O`, for which, in assay [1], the inhibition of growth at 5 µM is 20%. In assay [2], the inhibition is 98%.

Turning to `CC[C@@H]1NC(=O)[C@H](CCCNC(=N)N)NC(=O)[C@H]2CCCN2C(=O)[C@@H]2Cc3ccccc3CN2C1=O`, the inhibition of growth at 5 µM in assay [1] worked out at 0%. For the same compound, the inhibition in assay [2] was found to be 83%.

Consider `CC[C@@H]1NC(=O)[C@H](CCCCNC(C)=O)NC(=O)[C@H]2CCCN2C(=O)[C@H](Cc2ccccc2)NC1=O`, for which the inhibition of growth at 5 µM in assay [1] was determined as 38%. Also, the inhibition in assay [2] is 38%.

In the case of `CC[C@@H]1NC(=O)[C@H](CCCNC(=N)N)NC(=O)[C@H]2CCCN2C(=O)[C@@H](Cc2ccccc2)NC1=O`, in assay [1], the inhibition of growth at 5 µM turned out to be 17%. Further, the inhibition in assay [2] was determined as 97%.

Consider `CC[C@@H]1NC(=O)[C@H](CCCNC(=N)N)NC(=O)[C@H]2CCCN2C(=O)[C@H](Cc2ccccc2)NC1=O`, for which, in assay [1], the inhibition of growth at 5 µM was 27%. This compound yielded an inhibition in assay [2] of 97%.

Turning to `CC[C@@H]1NC(=O)[C@H](CCCCNC(C)=O)NC(=O)[C@H]2CCCN2C(=O)[C@H](Cc2ccccc2)N(C)C1=O`, in assay [1], the inhibition of growth at 5 µM came out at 19%. Further, the inhibition in assay [2] turned out to be 86%.

As usually defined, the inhibition is how much of the control response was suppressed.
